Test results as given in patent publication US7179825B2, “Retinoic acid mimetic anilides” (Janssen Pharmaceutica N.V., priority 1997, dated 2007).

Assays:
[1] = system: metabolism of retinoic acid in human breast cancer cells; assay: Inhibition of retinoic acid (RA) metabolism (Example C.1); format: cell-based; settings: MCF-7 human breast cancer cells, 3H-RA as substrate; concentration needed to reduce the amount of metabolites to 50% of the control
Text: The property to delay the metabolism of retinoic acid can be evidenced in various in vitro and in vivo experiments. A particular in vitro procedure is described in example C.1 and tests the inhibitory activity of the compounds of formula (I) on the metabolism of retinoic acid in human breast cancer cells. The compounds of the present invention were also effective in suppressing induced vaginal keratinization effects in ovariectomized rats as is described in example C.2.
Inhibition of Retinoic Acid (RA) Metabolism
MCF-7 human breast cancer cells were grown as stock cultures according to art-known protocols. One day before the experiment, RA is added to the stock cultures to stimulate RA-metabolism. At the start of the experiment, cell suspensions were incubated in a tissue culture medium containing ^3H-RA as the substrate. Different concentrations of the test compound (dissolved in 1% DMSO) were added to the incubation mixtures, and at the end of the incubation, the unmetabolized RA is separated from its polar metabolites. The fraction containing the polar ^3H-labelled metabolites was collected and counted in a scintillation counter. For each experiment, a control and a blank incubation were run in parallel. Table 22 list the IC50 value (defined as the concentration in M needed to reduce the amount of metabolites to 50% of the control).

Ovariectomized rats = assay: Vaginal keratinization test on ovariectomized rats (Example C.2); format: in vivo; settings: estradiol undecylate induced keratinization, per os once daily on days 1-3, active dose = 50% of rats show complete suppression
Procedure, shortened: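 Ovariectomized rats given s.c. estradiol undecylate (100 μg per 100 g body weight in sesame oil), then oral compound once daily on days 1-3 (vehicle PEG 200). Vaginas assessed histologically one day after last dose; lowest active dose (mg/kg) is the dose giving complete keratinization suppression in 50% of rats.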

| SMILES | IC50 [1] [pM] | LAD (lowest active dose) (Ovariectomized rats) [mg/kg] |
| --- | --- | --- |
| CCC(CC)C(c1ccc(NC(=O)Cc2ccc3c(c2)OCCO3)cc1)n1ccnc1 (racemic) [Compound 36] | 1430 | 5.00 |
| CCC(CC)C(c1ccc(NC(=O)COc2ccccc2OC)cc1)n1ccnc1 (racemic) [Compound 37] | 1000 | 5.00 |
| CCC(CC)C(c1ccc(NC(=O)Cc2ccc3c(c2)C(C)(C)CCC3(C)C)cc1)n1ccnc1 (racemic) [Compound 38] | 1040 | 5.00 |
| CCOc1ccc(CCC(=O)Nc2ccc(C(C(CC)CC)n3ccnc3)cc2)cc1 (racemic) [Compound 39] | 104 | 0.60 |
| CCC(CC)C(c1ccc(NC(=O)c2ccc(OC)nc2)cc1)n1ccnc1 (racemic) [Compound 45] | 172 | 2.50 |
| CCC(CC)C(c1ccc(NC(=O)C2CCN(C(=O)c3ccccc3)CC2)cc1)n1ccnc1 (racemic) [Compound 46] | 1950 | >2.50 |
| CCC(CC)C(c1ccc(NC(=O)CN2CCOCC2)cc1)n1ccnc1 (racemic) [Compound 47] | 1330 | 2.50 |
| CCOc1ccc(CCCC(=O)Nc2ccc(C(C(CC)CC)n3ccnc3)cc2)cc1 (racemic) [Compound 48] | 569 | 2.50 |
| CCC(CC)C(c1ccc(NC(=O)COc2ccccc2O)cc1)n1ccnc1 (racemic) [Compound 49] | 433 | 2.50 |
| CCC(CC)C(c1ccc(NC(=O)CCCc2ccc(OC)c(OC)c2)cc1)n1ccnc1 (racemic) [Compound 52] | 907 | 2.50 |
| CCC(CC)C(c1ccc(NC(=O)C2CCN(C(=O)OC(C)(C)C)CC2)cc1)n1ccnc1 (racemic) [Compound 53] | 2120 | >2.50 |
| CCC(CC)C(c1ccc(NC(=O)Cc2ccc3nc(N)sc3c2)cc1)n1ccnc1 (racemic) [Compound 58] | < 10 | 5.00 |
| CCC(CC)C(c1ccc(NC(=O)Nc2nc3ccccc3s2)cc1)n1cncn1 (racemic) [Compound 63] | 6700 | >5.00 |
| CCC(CC)C(c1ccc(NC(=O)Nc2nc3ccccc3s2)cc1)n1ccnc1 (racemic) [Compound 64] | 6600 | >5.00 |
| CCC(CC)C(c1ccc(NC(=O)Cc2ccc(C)cc2)cc1)n1cncn1 (racemic) [Compound 65] | 379 | 5.00 |
| CCC(CC)C(c1ccc(NC(=O)Cc2ccc(Cl)cc2)cc1)n1cncn1 (racemic) [Compound 66] | 356 | 2.50 |
| CCC(CC)C(c1ccc(NC(=O)Cc2cccc(O)c2)cc1)n1cncn1 (racemic) [Compound 67] | 334 | 2.50 |
| CCC(CC)C(c1ccc(NC(=O)Cc2ccc(F)cc2)cc1)n1cncn1 (racemic) [Compound 68] | 1720 | 5.00 |
| CCC(CC)C(c1ccc(NC(=O)Cc2ccc(O)cc2)cc1)n1cncn1 (racemic) [Compound 69] | 250 | 2.50 |
| CCC(CC)C(c1ccc(NC(=O)Cc2cccc(OC)c2)cc1)n1cncn1 (racemic) [Compound 70] | 295 | 5.00 |
| CCOc1ccc(CC(=O)Nc2ccc(C(C(CC)CC)n3cncn3)cc2)cc1 (racemic) [Compound 71] | 262 | >5.00 |
| CCC(CC)C(c1ccc(NC(=O)Cc2ccc(O)c(OC)c2)cc1)n1cncn1 (racemic) [Compound 72] | 1660 | 2.50 |
| CCC(CC)C(c1ccc(NC(=O)Cc2ccc(OC)c(OC)c2)cc1)n1cncn1 (racemic) [Compound 73] | 463 | >2.50 |
| CCOc1ccc(CC(=O)Nc2ccc(C(C(CC)CC)n3cncn3)cc2)cc1Cl (racemic) [Compound 75] | 417 | 2.50 |
| CCOc1ccc(CC(=O)Nc2ccc(C(C(CC)CC)n3cncn3)cc2)cc1C (racemic) [Compound 76] | 588 | >2.50 |
| CCC(CC)C(c1ccc(NC(=O)Cc2ccc(C)c(C)c2)cc1)n1cncn1 (racemic) [Compound 77] | 332 | 2.50 |

| SMILES | IC50 [1] [pM] | LAD (lowest active dose) (Ovariectomized rats) [mg/kg] |
| --- | --- | --- |
| CCC(CC)C(c1ccc(NC(=O)Cc2ccc(OC)c(C)c2)cc1)n1cncn1 (racemic) [Compound 78] | 227 | 1.25 |
| CCC(CC)C(c1ccc(NC(=O)Cc2ccc(O)c(Cl)c2)cc1)n1cncn1 (racemic) [Compound 79] | 34.2 | 2.50 |
| CCC(CC)C(c1ccc(NC(=O)Cc2cc(OC)c(OC)c(OC)c2)cc1)n1cncn1 (racemic) [Compound 80] | 48.3 | >2.50 |
| CCC(CC)C(c1ccc(NC(=O)Cc2cc(C)c(C)c(C)c2)cc1)n1cncn1 (racemic) [Compound 81] | 231 | 2.50 |
| CCOc1ccc(CC(=O)Nc2ccc(C(C(CC)CC)n3cncn3)cc2)cc1OCC (racemic) [Compound 82] | 1160 | 2.50 |
| CCC(CC)C(c1ccc(NC(=O)Cc2ccc(Cl)c(OC)c2)cc1)n1cncn1 (racemic) [Compound 83] | 162 | >2.50 |
| CCC(CC)C(c1ccc(NC(=O)Cc2ccc(C)c(OC)c2)cc1)n1cncn1 (racemic) [Compound 84] | 1740 | >2.50 |
| CCC(CC)C(c1ccc(NC(=O)Cc2ccc(Cl)cc2)cc1)n1ccnc1 (racemic) [Compound 87] | 280 | 1.25 |
| CCC(CC)C(c1ccc(NC(=O)Cc2ccc(F)cc2)cc1)n1ccnc1 (racemic) [Compound 88] | 148 | 2.50 |
| CCC(CC)C(c1ccc(NC(=O)Cc2ccccc2OC)cc1)n1ccnc1 (racemic) [Compound 89] | 131 | 2.50 |
| CCC(CC)C(c1ccc(NC(=O)Cc2cccc(OC)c2)cc1)n1ccnc1 (racemic) [Compound 90] | 2360 | 2.50 |
| CCC(CC)C(c1ccc(NC(=O)Cc2ccc(OC)c(OC)c2)cc1)n1ccnc1 (racemic) [Compound 91] | 935 | 2.50 |
| CCC(CC)C(c1ccc(NC(=O)Cc2ccc(OC(C)C)cc2)cc1)n1ccnc1 (racemic) [Compound 92] | 2210 | 5.00 |
| CCCOc1ccc(CC(=O)Nc2ccc(C(C(CC)CC)n3ccnc3)cc2)cc1 (racemic) [Compound 93] | 1590 | 2.50 |
| CCC(CC)C(c1ccc(NC(=O)Cc2ccc(C)cc2)cc1)n1ccnc1 (racemic) [Compound 94] | 1060 | 5.00 |
| CCOc1ccc(CC(=O)Nc2ccc(C(C(CC)CC)n3ccnc3)cc2)cc1 (racemic) [Compound 95] | 1480 | 5.00 |
| CCCCOc1ccc(CC(=O)Nc2ccc(C(C(CC)CC)n3ccnc3)cc2)cc1 (racemic) [Compound 96] | 1090 | 2.50 |
| CCC(CC)C(c1ccc(NC(=O)Cc2ccc(O)c(OC)c2)cc1)n1ccnc1.O=C(O)C(=O)O (racemic) [Compound 97] | 1320 | 2.50 |
| CCC(CC)C(c1ccc(NC(=O)Cc2cc(OC)ccc2OC)cc1)n1ccnc1 (racemic) [Compound 98] | 1640 | 5.00 |
| CCC(CC)C(c1ccc(NC(=O)Cc2ccc(N(C)C)cc2)cc1)n1ccnc1 (racemic) [Compound 99] | 5770 | 2.50 |
| CCC(CC)C(c1ccc(NC(=O)Cc2cccc(OC)c2OC)cc1)n1ccnc1 (racemic) [Compound 102] | 67.8 | 5.00 |
| CCC(CC)C(c1ccc(NC(=O)Cc2ccc(Oc3ccccc3)cc2)cc1)n1ccnc1 (racemic) [Compound 103] | 7110 | >2.50 |
| CCC(CC)C(c1ccc(NC(=O)Cc2ccccc2C)cc1)n1ccnc1 (racemic) [Compound 104] | 40.7 | 2.50 |
| CCC(CC)C(c1ccc(NC(=O)Cc2ccc(OC)cc2)cc1)n1ccnc1 (racemic) [Compound 105] | 51.6 | 2.50 |
| CCC(CC)C(c1ccc(NC(=O)Cc2cc(C)ccc2C)cc1)n1ccnc1 (racemic) [Compound 106] | 1690 | 2.50 |
| CCC(CC)C(c1ccc(NC(=O)Cc2ccccc2O)cc1)n1ccnc1 (racemic) [Compound 107] | 1440 | >2.50 |
